Columns and labels:
[1] = test system: normal glycemic C57Bl/6 mouse; test: Oral glucose tolerance test (OGTT); type: in vivo; conditions: for Glucose 0 Minute: 3 h before dextrose 3 g/kg; for Glucose 0 Minute / Glucose 20 Minute / Glucose 40 Minute / Glucose 60 Minute / Glucose 120 Minute / Baseline Adjusted AUC: mean ± SE; for Glucose 20 Minute: 20 min after dextrose; for Glucose 40 Minute: 40 min after dextrose; for Glucose 60 Minute: 60 min after dextrose; for Glucose 120 Minute: 120 min after dextrose; for Baseline Adjusted AUC: glucose AUC during OGTT
Description: The test compound is formulated by adding a vehicle of 1% hydroxyethylcellulose, 0.25% Tween® 80 w/ antifoam 0.05% to preweighed test compound to make a 1 mg/ml solution. The mixture is probe sonicated for approximately 30 seconds. The resulting solution is used as a stock solution from which the lower concentration dose solutions are prepared by dilution with the vehicle.
Single housed C57Bl/6 mice are fasted overnight by removing access to food the late afternoon before test day. The following morning, the mice are weighed and a single fasting blood sample is taken by tail snip to measure glucose by glucometer (Roche AccuChek). Study groups (n=5) are determined based on fasted blood glucose and comprise preferably animals in the range of 80-100 mg/dl glucose.
After grouping, the first mouse is orally gavaged with 10 ml/kg test compound preparation and a timer started. Each subsequent animal is dosed a minute and a half apart. Three hours after the first compound treatment is started, a baseline blood sample is taken for measuring glucose (from the first animal, via tail snip). The animal is then immediately given an oral dose of 50% dextrose (Hospira) at 3 g/kg. Blood samples are taken for glucose, exactly a minute and half apart, by tail vein so that blood is collected in each animal at 20, 40, 60 and 120 minutes after the dextrose dose.

[2] = test system: male Sprague Dawley rats with STZ-induced diabetes; test: Mixed meal tolerance test in male rats with streptozotocin induced diabetes; type: in vivo, rat; conditions: for Glucose Values 0 min. / Glucose Values 20 min. / Glucose Values 40 min. / Glucose Values 60 min. / Glucose Values 120 min. / Baseline Adjusted AUC: mean ± SE; for Baseline Adjusted AUC: glucose AUC in MTT
Description: Rats which have been administered streptozotocin (STZ) develop diabetes mellitus. Agents which modulate glucose levels in these animals are believed to be useful in the treatment of diabetes in humans.
The test compound is formulated by adding a vehicle of 1% hydroxyethylcellulose (HEC), 0.25% Tween® 80 w/ antifoam 0.05% to preweighed test compound to make a 2.5 mg/ml solution. The mixture is probe sonicated for approximately 30 seconds. The resulting solution is used as a stock solution, from which the lower concentration dose solutions are prepared by dilution with the vehicle. STZ, 45 mg/kg, is formulated by dissolving in 0.1M Citrate buffer in 3 ml aliquots and stored in the dark on ice, when not being administered. A high fat content mixed meal (Bio-Serv® Rodent Diet F3282 High Fat) comprising Fat Calories (60%), Carbohydrate Calories (26%) and Protein Calories (15%) is utilized. Single housed Sprague Dawley rats are allowed to acclimate for a period of 3 to 7 days.
In an effort to ensure that the animals have not recently fed, STZ is administered in the afternoon, approximately six hours into the light cycle (lights on 6 am, lights off 6 pm). The animals are anesthetized with isoflurane and STZ is delivered via tail vein injection. Once animals regain consciousness, they are returned to housing and allowed to recover for 7 days.
On the two days immediately prior to the meal tolerance test (MTT) all rats are given a small amount (2-4 g) of the F3282 diet, so they became acclimated to it prior to receiving it during the experiment. On the evening before the experiment, the rats are moved into clean cages and their food is removed. The following morning animals are weighed and a blood sample is taken by tail snip for glucose measurement (Abbott AlphaTrak glucometers: code 29). Animals are grouped n=6 based on fasted body weight and glucose. Thirty minutes after the test compound is orally administered, two glucose measurements are collected. Then a five gram pellet of Bio-Serv® diet 3282 is given. After 20 minutes remaining food is taken away and weighed. Blood samples are taken at 20, 40, 60 and 120 minutes for glucose measurement.

[3] = result in words, Example 1 10 and 30 mg/kg, Acarbose 60 mg/kg

Question: With `Cc1cc(/C=C/CCN2CCCC3(CCNCC3)C2)ccc1Cc1c(O[C@@H]2O[C@H](CO)[C@@H](O)[C@H](O)[C@H]2O)n[nH]c1C(C)C` [Example 1, 4-{4-[(1E)-4-(2,9-diazaspiro[5.5]undec-2-yl)but-1-en-1-yl]-2-methylbenzyl}-5-(propan-2-yl)-1H-pyrazol-3-yl beta-D-glucopyranoside] as the compound, how does the “Glucose 0 Minute” value ([1]; 0.3 mg/kg oral) read?
Answer: 78 ± 4.2 mg/dL

Question: What about the “Glucose 20 Minute” value ([1]; 0.3 mg/kg oral) of the same compound?
Answer: 185 ± 13.7 mg/dL

Question: And the “Glucose 40 Minute” value ([1]; 0.3 mg/kg oral)?
Answer: 197 ± 14.7 mg/dL

Question: What about the “Glucose 60 Minute” value ([1]; 0.3 mg/kg oral) of the same compound?
Answer: 164 ± 6.3 mg/dL

Question: And the “Glucose 120 Minute” value ([1]; 0.3 mg/kg oral)?
Answer: 121 ± 11.8 mg/dL

Question: What about the “Baseline Adjusted AUC” value ([1]; 0.3 mg/kg oral) of the same compound?
Answer: 5400 ± 519^

Question: What about the “Glucose 0 Minute” value ([1]; 1 mg/kg oral) of the same compound?
Answer: 76 ± 3.3 mg/dL

Question: What about the “Glucose 20 Minute” value ([1]; 1 mg/kg oral) of the same compound?
Answer: 147 ± 8.3 mg/dL

Question: And the “Glucose 40 Minute” value ([1]; 1 mg/kg oral)?
Answer: 171 ± 11.1 mg/dL

Question: What about the “Glucose 60 Minute” value ([1]; 1 mg/kg oral) of the same compound?
Answer: 162 ± 5.8 mg/dL

Question: And the “Glucose 120 Minute” value ([1]; 1 mg/kg oral)?
Answer: 109 ± 7.3 mg/dL

Question: What about the “Baseline Adjusted AUC” value ([1]; 1 mg/kg oral) of the same compound?
Answer: 4158 ± 374^

Question: What about the “Glucose 0 Minute” value ([1]; 3 mg/kg oral) of the same compound?
Answer: 72 ± 2.6 mg/dL

Question: What about the “Glucose 20 Minute” value ([1]; 3 mg/kg oral) of the same compound?
Answer: 133 ± 7.1 mg/dL

Question: And the “Glucose 40 Minute” value ([1]; 3 mg/kg oral)?
Answer: 150 ± 7.5 mg/dL

Question: And the “Glucose 60 Minute” value ([1]; 3 mg/kg oral)?
Answer: 155 ± 7.2 mg/dL

Question: And the “Glucose 120 Minute” value ([1]; 3 mg/kg oral)?
Answer: 115 ± 10 mg/dL

Question: What about the “Baseline Adjusted AUC” value ([1]; 3 mg/kg oral) of the same compound?
Answer: 3606 ± 421

Question: What about the “Glucose 0 Minute” value ([1]; 10 mg/kg oral) of the same compound?
Answer: 78 ± 5.4 mg/dL

Question: And the “Glucose 20 Minute” value ([1]; 10 mg/kg oral)?
Answer: 124 ± 1.2 mg/dL

Question: And the “Glucose 40 Minute” value ([1]; 10 mg/kg oral)?
Answer: 137 ± 5.4 mg/dL

Question: And the “Glucose 60 Minute” value ([1]; 10 mg/kg oral)?
Answer: 138 ± 6.1 mg/dL

Question: And the “Glucose 120 Minute” value ([1]; 10 mg/kg oral)?
Answer: 114 ± 4.3 mg/dL

Question: What about the “Baseline Adjusted AUC” value ([1]; 10 mg/kg oral) of the same compound?
Answer: 2693 ± 309

Question: What about the “average maximum concentration of plasma glucose (Cmax) during the OGTT” value ([1]; 0.3-10 mg/kg, result in words) of the same compound?
Answer: dose dependently decreases

Question: What about the “average time that it takes for glucose to reach maximum concentration (Tmax)” value ([1]; 0.3-10 mg/kg, result in words) of the same compound?
Answer: increasing

Question: And the “Glucose Values 0 min.” value ([2]; 10 mg/kg oral)?
Answer: 139 ± 16.1 mg/dL

Question: What about the “Glucose Values 20 min.” value ([2]; 10 mg/kg oral) of the same compound?
Answer: 221.2 ± 26.3 mg/dL

Question: And the “Glucose Values 40 min.” value ([2]; 10 mg/kg oral)?
Answer: 268.7 ± 29 mg/dL

Question: What about the “Glucose Values 60 min.” value ([2]; 10 mg/kg oral) of the same compound?
Answer: 330 ± 36.7 mg/dL

Question: What about the “Glucose Values 120 min.” value ([2]; 10 mg/kg oral) of the same compound?
Answer: 490.8 ± 39.2 mg/dL

Question: What about the “Baseline Adjusted AUC” value ([2]; 10 mg/kg oral) of the same compound?
Answer: 22432 ± 2234

Question: What about the “Glucose Values 0 min.” value ([2]; 30 mg/kg oral) of the same compound?
Answer: 137.4 ± 26.9 mg/dL

Question: And the “Glucose Values 20 min.” value ([2]; 30 mg/kg oral)?
Answer: 195.4 ± 44.8 mg/dL

Question: And the “Glucose Values 40 min.” value ([2]; 30 mg/kg oral)?
Answer: 232 ± 52.2 mg/dL

Question: What about the “Glucose Values 60 min.” value ([2]; 30 mg/kg oral) of the same compound?
Answer: 263.9 ± 62.2 mg/dL

Question: And the “Glucose Values 120 min.” value ([2]; 30 mg/kg oral)?
Answer: 355.3 ± 73.2 mg/dL

Question: What about the “Baseline Adjusted AUC” value ([2]; 30 mg/kg oral) of the same compound?
Answer: 14649 ± 3673

Question: `C[C@H]1O[C@H](O[C@H]2[C@H](O)[C@@H](O)[C@@H](O[C@H]3[C@H](O)[C@@H](O)C(O)O[C@@H]3CO)O[C@@H]2CO)[C@H](O)[C@@H](O)[C@@H]1N[C@H]1C=C(CO)[C@@H](O)[C@H](O)[C@H]1O` (stereo partly shown) [Acarbose, reference compound] was tested. Which “Glucose Values 0 min.” value ([2]; 60 mg/kg oral) did it give?
Answer: 124 ± 16.9 mg/dL

Question: What about the “Glucose Values 20 min.” value ([2]; 60 mg/kg oral) of the same compound?
Answer: 181 ± 22.8 mg/dL

Question: What about the “Glucose Values 40 min.” value ([2]; 60 mg/kg oral) of the same compound?
Answer: 301.3 ± 51.2 mg/dL

Question: And the “Glucose Values 60 min.” value ([2]; 60 mg/kg oral)?
Answer: 371.5 ± 63.9 mg/dL

Question: What about the “Glucose Values 120 min.” value ([2]; 60 mg/kg oral) of the same compound?
Answer: 433.7 ± 83 mg/dL

Question: What about the “Baseline Adjusted AUC” value ([2]; 60 mg/kg oral) of the same compound?
Answer: 23877 ± 4649

Question: What about the “glucose baseline adjusted AUCs in the MTT” value [2, 3] of the same compound?
Answer: significantly decreases

Question: What about the “glucose in the MTT compared to the vehicle controls” value [2, 3] of the same compound?
Answer: did not significantly decrease

Reference: patent publication US9296775B2, “Pyrazole compounds” (Eli Lilly and Company, priority 2012, dated 2016)
